Article PMC3772838, “Preclinical Development of a Novel Class of CXCR4 Antagonist Impairing Solid Tumors Growth and Metastases” (PLoS ONE, 2013)
Bridges are numbered along the chain shown (N, C = ends). Where no end group is shown, it is not given here.

Columns and labels:
[1] = system: B16-CXCR4 murine melanoma cells; assay: B16-CXCR4 melanoma lung metastases model; type: in vivo, C57BL/6 mice; settings: cells pre-treated 30 min with 10 µM, IP once a day for 10 days, peptides 2 mg/kg, AMD3100 1.25 mg/kg; for number of lung metastases: control 8.4±3.49, average
Procedure: All mice were obtained from Harlan (Bar Harbor, ME, USA) and their care was in accord with institutional guidelines. Twenty-five 6-8-week-old female C57BL/6 mice were inoculated into the tail vein with 5×10^5 B16–CXCR4 cells pre-treated for 30 minutes with peptide S (10 µM), peptide R (10 µM), peptide I (10 µM), or AMD3100 (10 µM). Six hours later intraperitoneal (IP) treatment started with AMD3100 (1.25 mg/kg) or each peptide (2 mg/kg) in sterile PBS once a day for 10 days. A week later the mice were sacrificed. The experiment was repeated three times. The lung metastases assay was also conducted with K7M2 murine osteosarcoma cells. Twenty-five 6-8-week-old female Balb/c mice were injected via tail vein with 2.5×10^5 K7M2 cells pre-treated for 30 minutes with AMD3100 (10 µM), peptide S (10 µM), peptide R (10 µM), peptide I (10 µM) and animals were treated IP daily for 15 days with 2.5 mg/kg for AMD3100 group and 10 mg/kg for each peptide groups. A week later the mice were sacrificed. Xenograft tumor growth was evaluated using pEGFP-SN12C cells in exponential growth phase subcutaneously injected into the right flank of twenty-five 6-8-week-old female CD1 nude mice. 2×10^6 SN12C-pEGFP were injected in the right flank of each mouse and treated with AMD3100 (1.25 mg/kg) and peptides (2 mg/kg) for 10 days ip. A week later mice were euthanized and tumor volume evaluated through Leica MacroFluo fluorescence stereomicroscope (Leica microsystem, Houston, TX). The experiment was repeated three times. The Istituto Nazionale per lo Studio e la Cura dei Tumori, Fondazione Giovanni Pascale Independent Etical Comettee approved the study (CEI/600/12).
(A) B16-CXCR4 tumor cells pre-treated for 30 minutes with AMD3100 (10 µM), peptide R (10 µM), peptide I (10 µM), or peptide S (10 µM) were inoculated into the tail vein of C57/B female mice and the mice were further treated intraperitoneally for 10 days with 1.25 mg/kg AMD3100, or 2 mg/kg peptide R, peptide I or peptide S. Gross examination of representative lungs; (B) Graphical representation of the number of lung metastases in treated mice. Double tailed T-Test was used for statistical analyses. The experiments were repeated three times.

[2] = system: PES43 human melanoma cells; assay: CXCL12-dependent Transwell migration of PES43 cells; type: cell-based; settings: 100 ng/mL CXCL12 in lower chamber, 16 h, tested 10 nM, 100 nM, 1 µM, 10 µM
Procedure: (§1) Migration was assayed in 24-well Transwell chambers (Corning Inc., Corning, NY) using inserts with an 8-µm pore membrane. Membranes were precoated with collagen (human collagen type I/III) and fibronectin (20 µg/mL each). […] After 16 h incubation, cells on the upper surface of the filter were removed using a cotton wool swab; migration of cells in migration media alone was compared with migration in media containing CXCL12. The cells were counted in ten different fields (original magnification ×40). The migration index was defined as the ratio between migrating cells in the experimental group and migrated cells in the control group. For the wound closure assay, tested cells were allowed to reach confluence in six-well plates containing serum-depleted growth medium and scratched with pipette tips to make wounds. The wound closure was observed microscopically 6 hours post-wounding (OKO Time Lapse).
(§2) Experiments were conducted using PES43 cells. (A) Migration was assayed in 24-well Transwell chambers using inserts with 8-µm pore membrane. […] Migrated cells on the lower surface were fixed, stained with H&E and counted microscopically. The results are expressed as the migration index relative to migration in presence of BSA alone. […] Images were acquired with OKO Time Lapse. […] PES43 cells were serum-starved and incubated with CXCL12 (100 ng/ml) alone or in presence of AMD3100/peptides. Each peptide was tested in at least three different experiments. Double tailed T-Test was used for statistical analyses. Differences were considered significant at P<0.05 compared to control.

[3] = system: K7M2 murine osteosarcoma cells; assay: K7M2 in vitro migration; type: cell-based, mouse; settings: Figure 4
Procedure: as §1

P-ERK1/2 = assay: CXCL12-induced p-ERK induction (immunoblotting); type: cell-based, human; settings: PES43 cells serum-starved, CXCL12 100 ng/ml, after 5 minutes
Procedure: Cells were homogenized in lysis buffer (40 mM Hepes pH 7,5, 120 mM NaCl, 5 mM MgCl2, 1 mM EGTA, 0,5 mM EDTA, 1% Triton X-100) containing protease (Complete Tablets- EDTA-free, Roche) and phosphatase inhibitors (20 mM α-glycerol-3-phosphate, 2,5 mM Na-pyrophosphate). The following primary antibodies were used: anti-p-ERK (sc7383, Santa Cruz Biotechnology, Inc., Santa Cruz, CA, USA) and anti-ERK2 (sc 154G, Santa Cruz Biotechnology CA, USA). P-Erk induction was plotted as ratio P-Erk in the presence of CXCL12 (100 ng/ml)/P-Erk in serum free.
as §2
PES43 cell lines were serum starved for 16 hours. […] (TIF) Click here for additional data file.

CXCR4 = assay: Mobilization of hematopoietic precursors and neutrophils; type: in vivo; settings: DBA/2 mouse; for duration of mobilization effect compared to AMD3100: preliminary; for stem cell and neutrophil mobilization relative to AMD3100: preliminary evidence
From the text: The development of CXCR4 inhibitors is of increasing interest with AMD3100 (Plerixafor) having been approved by the FDA for stem cell mobilization, [39]. We evaluated peptides R, I and S for their ability to mobilize hematopoietic precursors in a DBA/2 mouse model in a CXCR4 dependent manner.

CXCR3 = assay: Anti-CXCR3 antibody (clone 1C6/CXCR3) binding in CXCR3 overexpressing cells; design: species or system human; settings: COLO205 cells; peptides 10 µM, CXCL11 100 nM, 30 min pre-incubation; Figure S3
Procedure: [The procedure below names another target; the source says it served here with some conditions changed.] CXCR4 binding was evaluated as previously described. Briefly 5×10^5 CCRF–CEM cells were pre-incubated with 10 µM peptides or AMD3100 in binding buffer (PBS 1× plus 0.2% BSA and 0.1% NaN3) for 30 minutes at 37°C, 5% CO2 and then labeled for 30 minutes with anti-CXCR4 PE-antibody (FAB170P, clone 12G5, R&D Systems, Minneapolis, MN, USA). The cells were analyzed by FACS Canto II cytofluorometer (Becton Dickinson Immunocytometry Systems, Mountain View, CA, USA).
Fluo-3AM and Pluronic acid were added to each sample to increase Fluo-3AM solubility and improve dye loading into the cells. (TIF) Click here for additional data file.

Substance	number of lung metastases [1]	concentration at which CXCL12-dependent migration was inhibited [2]	K7M2 in vitro migration [3]	CXCL12-mediated p-ERK induction (P-ERK1/2)	duration of mobilization effect compared to AMD3100 (CXCR4)	stem cell and neutrophil mobilization relative to AMD3100 (CXCR4)	binding to CXCR3 (anti-CXCR3 antibody) (CXCR3)	fold reduction of the number of lung metastases vs control [1]
Arg-Ala-[Cys-Arg-His-Trp-Cys] (RACRHWC; disulfide 3-7) [Peptide S, CXCL12-mimetic disulfide-cyclic peptide]	2.96±2.39	≤ 10 nM	reduced	reduced	more durable	as potent stem cell and neutrophil mobilization as does AMD3100	unaffected	–
[Cys-Trp-His-Arg-Cys] (CWHRC; disulfide 1-5) [Peptide I, v-MIP-II mimetic disulfide-cyclic peptide]	0.2±0.44	≤ 10 nM	reduced	reduced	more durable	as potent stem cell and neutrophil mobilization as does AMD3100	unaffected	41.5 fold
Arg-Ala-[Cys-Arg-Phe-Phe-Cys] (RACRFFC; disulfide 3-7) [Peptide R, CXCL12-mimetic disulfide-cyclic peptide]	1.2±1.4	≤ 10 nM	reduced	reduced	more durable	as potent stem cell and neutrophil mobilization as does AMD3100	unaffected	7 fold
